Patent US12649748B2, “Wee1 inhibitor and use thereof” (JIANGSU TASLY DIYI PHARMACEUTICAL CO., LTD., priority 2021, dated 2026)
Read-outs that look alike come from different tables or passages of the source.

Columns and labels:
Wee1 protein = target: T1, Wee1 protein (Homo sapiens, UniProt P30291); assay: Binding of compound to Wee1 protein and Tracer 178 by TR-FRET; conditions: inhibitory activity against Wee1 kinase, read-out: IC50 measured value
T1 construct: purchased Thermo Fisher PR7373A
Procedure: First, solutions of the compounds in different concentration gradients were prepared. […] DMSO was added as a positive control (maximal signal control) and a negative control (minimal signal control) and a final level of 0.25% DMSO was ensured in each reaction well.
WEE1 (Thermo Fisher, Cat #PR7373A) protein in buffer (50 mM Hepes pH 7.5, 10 mM MgCl2, 1 mM EGTA, 0.01% Brij-35) at 15 nM) in different concentrations of compound, and Tracer 178 (Invitrogen, PV5593) and MAb Anti-GST-Eu crypate (Cisbio, 61GSTKLA) were added to 384-well plates (Corning, cat #3574), centrifuged at 1000 rpm for 1 min and the 384-well plates were incubated in a constant temperature shaker for 60 min at 25° C. and 300 rpm. Tracer 178 and MAb Anti-GST-Eu crypate were prepared in buffer (50 mM HEPES pH 7.5, 10 mM MgCl2, 1 mM EGTA, 0.01% Brij-35) with a final reaction concentration of 50 nM for Tracer 178 and a final concentration of 2 nM for MAb Anti-GST-Eu crypate, where the negative control (minimal signal control) used an equal amount of buffer in place of the protein solution.
After incubation, readings were performed using BMG PHERAStar (excitation light at 337 nm and emission light at wavelength values of 620 nm and 665 nm to read the fluorescence signal values). […] The IC50 for inhibition of enzyme activity by the compounds was then calculated using GraphPad Prism 6 and fitted with a log (inhibitor) vs. response-Variable slope mode. The fitting equation was: Y=Bottom+(Top-Bottom)/(1+10^((Log IC50−X)*HillSlope)), where Y represents the percentage of residual enzyme activity known and X represents the known concentration of compound after the logarithm.

H1299 cells = assay: Anti-proliferative effect by Cell Titer-Glo, H1299; format: cell-based; conditions: Homo sapiens, NCI-H1299, 72 h, read-out: IC50 measured value H1299
Procedure: (§1) Compound solutions of different concentration gradients were prepared. DMSO was dissolved to a concentration of 10 mM test compound and 10 mM reference compound AZD1775, and the compounds were serially diluted in culture medium for a total of 9 dose points, with 2 parallel replicates set at each concentration. The cell growth group without compound was used as a positive control (maximum signal control) and the medium was used as a negative control (minimum signal control), while ensuring that the final level of DMSO in each reaction well was 0.2%. After removing the medium from the 384-well plate, 25 ul of the configured compound at different concentrations was transferred into the well plate and the compound and cells were incubated in the cell incubator at 37° C. with 5% CO2 for 3 days.
(§2) The 384-well plates were removed from the cell incubator and allowed to equilibrate for 1 h to room temperature. 25 ul of Cell Titer-Glo assay was added to each well, lysed on a shaker for 2 min and then read out (Luminescence) using a BMG PHERAStar after 10 min incubation. Calculate the inhibition rate from the luminescence signal: first calculate the average of the positive control (maximum signal control) and the negative control (minimum signal control).
(§3) [formula] to calculate the rate of inhibition of the cells by different concentrations of the compounds. The IC50 of the compound on cell activity inhibition was calculated by fitting a log(inhibitor) vs. response-Variable slope model to GraphPad Prism 6. The fitted equation was: Y=Bottom+(Top−Bottom)/(1+10^((Log IC50−X)*HillSlope)), where Y represents the rate of inhibition and X represents the concentration of the known compound after Log.

MIA Paca-2 cells = assay: Anti-proliferative effect by Cell Titer-Glo, MIA Paca-2; format: cell-based; conditions: Homo sapiens, read-out: IC50 measured value MIA Paca-2
Procedure: as §1, §2, §3

[1] = H1299 cells, 3 days, Cell Titer-Glo
[2] = 72 h, MIA Paca-2 cells, 3 days, Cell Titer-Glo

T1 sequence (P30291 whole entry): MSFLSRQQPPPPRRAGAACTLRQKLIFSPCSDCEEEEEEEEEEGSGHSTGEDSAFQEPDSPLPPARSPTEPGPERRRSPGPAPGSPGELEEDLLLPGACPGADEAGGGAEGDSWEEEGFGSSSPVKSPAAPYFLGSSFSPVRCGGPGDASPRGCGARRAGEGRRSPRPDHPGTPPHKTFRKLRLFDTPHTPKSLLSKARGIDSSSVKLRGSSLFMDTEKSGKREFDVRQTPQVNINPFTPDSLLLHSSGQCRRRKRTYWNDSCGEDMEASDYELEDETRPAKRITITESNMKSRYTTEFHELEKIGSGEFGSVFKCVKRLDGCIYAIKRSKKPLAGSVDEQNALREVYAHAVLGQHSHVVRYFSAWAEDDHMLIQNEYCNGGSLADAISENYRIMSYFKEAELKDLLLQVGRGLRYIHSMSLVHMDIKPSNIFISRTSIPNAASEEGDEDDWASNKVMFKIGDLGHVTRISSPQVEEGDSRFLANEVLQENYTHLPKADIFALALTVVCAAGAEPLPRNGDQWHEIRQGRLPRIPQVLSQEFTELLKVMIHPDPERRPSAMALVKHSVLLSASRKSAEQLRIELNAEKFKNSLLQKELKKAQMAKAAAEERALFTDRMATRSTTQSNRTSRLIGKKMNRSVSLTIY

IC50 (Wee1 protein) [nM]	IC50 (H1299 cells; [1]) [nM]	IC50 (MIA Paca-2 cells; [2]) [nM]	SMILES	IC50 (H1299 cells) [nM]	IC50 (MIA Paca-2 cells; MIA PaCa-2, 72 h) [nM]
10 to 100	1000 to 5000	–	CN1CCN(c2ccc(Nc3ncc4cnn(-c5cccc(C(C)(O)C(F)(F)F)n5)c4n3)cc2)CC1 (centres unmarked) [Compound 4]	–	–
1 to 10	1000 to 5000	–	CS(C)(=O)=Nc1cccc(-n2ncc3cnc(Nc4ccc5c(c4)CNCC5)nc32)n1 [Compound 7]	–	–
1 to 10	1000 to 5000	–	CN1CCc2ccc(Nc3ncc4cnn(-c5cccc(N=S(C)(C)=O)n5)c4n3)cc2C1 [Compound 8]	–	–
10 to 100	100 to 1000	–	CN1CCN(c2ccc(Nc3ncc4cnn(-c5cccc(C(C)(C)O)c5)c4n3)cc2)CC1 [Compound 12]	–	–
1 to 10	5000 to 20000	–	CN1CC2CC1CN2c1ccc(Nc2ncc3cnn(-c4cccc(N=S(C)(C)=O)n4)c3n2)cc1 (centres unmarked) [Compound 13]	–	–
10 to 100	5000 to 20000	100 to 1000	CN1CCN(c2c(Cl)cc(Nc3ncc4cnn(-c5cccc(N=S(C)(C)=O)n5)c4n3)cc2Cl)CC1 [Compound 17]	–	–
10 to 100	1000 to 5000	100 to 1000	CN1CCN(c2ccc(Nc3ncc4cnn(-c5cccc(N=S(C)(C)=O)n5)c4n3)cc2F)CC1 [Compound 19]	–	–
1 to 10	1000 to 5000	100 to 1000	CN1CCN(C2CCN(c3ccc(Nc4ncc5cnn(-c6cccc(N=S(C)(C)=O)n6)c5n4)cc3)CC2)CC1 [Compound 20]	–	–
10 to 100	1000 to 5000	100 to 1000	Cc1cc(Nc2ncc3cnn(-c4cccc(C(C)(C)O)n4)c3n2)ccc1N1CCN(C)CC1 [Compound 21]	–	–
100 to 1000	5000 to 20000	5000 to 20000	COc1cc(N2CCN(C)CC2)ccc1Nc1ncc2cnn(-c3cccc(N=S(C)(C)=O)n3)c2n1 [Compound 22]	–	–
1 to 10	100 to 1000	100 to 1000	CN1CCN(c2ccc(Nc3ncc4cnn(-c5cccc(N=S(C)(C)=O)n5)c4n3)cc2CO)CC1 [Compound 23]	–	–
1 to 10	100 to 1000	100 to 1000	CN1CCC2(CC1)CCN(c1ccc(Nc3ncc4cnn(-c5cccc(N=S(C)(C)=O)n5)c4n3)cc1)CC2 [Compound 25]	–	–
1 to 10	1000 to 5000	100 to 1000	COc1cc(Nc2ncc3cnn(-c4cccc(N=S(C)(C)=O)n4)c3n2)ccc1N1CCN(C)CC1 [Compound 26]	–	–
1 to 10	100 to 1000	100 to 1000	CN1CCN(c2ccc(Nc3ncc4c(=O)n(C)n(-c5cccc(N=S(C)(C)=O)n5)c4n3)cc2)CC1 [Compound 27A]	–	–
10 to 100	1000 to 5000	100 to 1000	COc1nn(-c2cccc(N=S(C)(C)=O)n2)c2nc(Nc3ccc(N4CCN(C)CC4)cc3)ncc12 [Compound 27B]	–	–
100 to 1000	100 to 1000	100 to 1000	CN1CCN(c2ccc(Nc3ncc4cnn(-c5ccnc(C(C)(C)O)c5)c4n3)cc2)CC1 [Compound 29]	–	–
10 to 100	1000 to 5000	100 to 1000	CN1CCN(c2ccc(Nc3ncc4cnn(-c5cncc(N=S(C)(C)=O)c5)c4n3)cc2)CC1 [Compound 31]	–	–
100 to 1000	100 to 1000	100 to 1000	CN1CCN(c2ccc(Nc3ncc4cnn(-c5cncc(C(C)(C)O)c5)c4n3)cc2)CC1 [Compound 32]	–	–

IC50 (Wee1 protein) [nM]	IC50 (H1299 cells; [1]) [nM]	IC50 (MIA Paca-2 cells; [2]) [nM]	SMILES	IC50 (H1299 cells) [nM]	IC50 (MIA Paca-2 cells; MIA PaCa-2, 72 h) [nM]
100 to 1000	1000 to 5000	1000 to 5000	CN1CCN(c2ccc(Nc3ncc4cnn(-c5cccc(N=S(C)(C)=O)c5F)c4n3)cc2)CC1 [Compound 33]	–	–
100 to 1000	100 to 1000	100 to 1000	CN1CCN(c2ccc(Nc3ncc4cnn(-c5cc(C(C)(C)O)ccn5)c4n3)cc2)CC1 [Compound 34]	–	–
100 to 1000	5000 to 20000	5000 to 20000	CN1CCN(c2ccc(Nc3ncc4c(C(F)(F)F)nn(-c5cccc(C(C)(C)O)c5)c4n3)cc2)CC1 [Compound 35]	–	–
10 to 100	1000 to 5000	1000 to 5000	CN1CCN(c2ccc(Nc3ncc4cnn(-c5ccc6ccncc6c5)c4n3)cc2)CC1 [Compound 36]	–	–
10 to 100	100 to 1000	100 to 1000	CN1CCN(c2ccc(Nc3ncc4cnn(-c5ccc6scnc6c5)c4n3)cc2)CC1 [Compound 37]	–	–
10 to 100	100 to 1000	100 to 1000	CN1CCN(c2ccc(Nc3ncc4cnn(-c5ccc6c(c5)C(=O)NCC6)c4n3)cc2)CC1 [Compound 38]	–	–
10 to 100	1000 to 5000	100 to 1000	CN1CCN(c2ccc(Nc3ncc4cnn(-c5ccc6c(c5)C(O)CO6)c4n3)cc2)CC1 (centres unmarked) [Compound 39]	–	–
10 to 100	1000 to 5000	1000 to 5000	CN1CCN(c2ccc(Nc3ncc4cnn(-c5ccc6cc[nH]c6c5)c4n3)cc2)CC1 [Compound 41]	–	–
10 to 100	100 to 1000	100 to 1000	CN1CCN(c2ccc(Nc3ncc4cnn(-c5ccc(F)c(C(C)(C)O)c5)c4n3)cc2)CC1 [Compound 42]	–	–
100 to 1000	100 to 1000	100 to 1000	CN1CCN(c2ccc(Nc3ncc4cnn(-c5cccc6c5CCC6(C)O)c4n3)cc2)CC1 (centres unmarked) [Compound 44]	–	–
10 to 100	1000 to 5000	100 to 1000	CN1CCN(c2ccc(Nc3ncc4cnn(-c5ccc6c(c5)C(=O)NC6)c4n3)cc2)CC1 [Compound 46]	–	–
100 to 1000	100 to 1000	100 to 1000	CN1CCN(c2ccc(Nc3ncc4cnn(-c5cccc(C(C)(C)O)c5)c4n3)cn2)CC1 [Compound 47]	–	–
10 to 100	1000 to 5000	1000 to 5000	CN1CCN(c2ccc(Nc3ncc4cnn(-c5cccc(-n6ccccc6=O)c5)c4n3)cc2)CC1 [Compound 48]	–	–
10 to 100	100 to 1000	100 to 1000	Cc1nc2cccc(-n3ncc4cnc(Nc5ccc(N6CCN(C)CC6)cc5)nc43)c2o1 [Compound 51]	–	–
100 to 1000	100 to 1000	100 to 1000	CN1CCN(c2ccc(Nc3ncc4cnn(-c5cc(C(C)(C)O)ccc5F)c4n3)cc2)CC1 [Compound 52]	–	–
10 to 100	5000 to 20000	1000 to 5000	CN1CCN(c2ccc(Nc3ncc4cnn(-c5cccc(-n6ccccc6=O)n5)c4n3)cc2)CC1 [Compound 54]	–	–
10 to 100	1000 to 5000	1000 to 5000	CN1CCN(c2ccc(Nc3ncc4cnn(-c5ccc6ncc(C(C)(C)O)n6c5)c4n3)cc2)CC1 [Compound 55]	–	–
100 to 1000	5000 to 20000	5000 to 20000	CN1CCN(c2ccc(Nc3ncc4cnn(-c5cccc(N=S(C)(C)=O)c5)c4n3)nc2)CC1 [Compound 56]	–	–

SMILES	IC50 (Wee1 protein) [nM]	IC50 (H1299 cells; [1]) [nM]	IC50 (MIA Paca-2 cells; [2]) [nM]	IC50 (H1299 cells) [nM]	IC50 (MIA Paca-2 cells; MIA PaCa-2, 72 h) [nM]
CN1CCN(c2ccc(Nc3ncc4cnn(-c5cccc(C6(S(C)(=O)=O)CC6)n5)c4n3)cc2)CC1 [Compound 5]	10 to 100	–	–	1000 to 5000	–
CN(C)C1CCN(c2ccc(Nc3ncc4cnn(-c5cccc(N=S(C)(C)=O)n5)c4n3)cc2)CC1 [Compound 9]	1 to 10	–	–	1000 to 5000	–
CS(C)(=O)=Nc1cccc(-n2ncc3cnc(Nc4ccc(CC5C(=O)C6CCN5CC6)cc4)nc32)n1 (centres unmarked) [Compound 15]	10 to 100	1000 to 5000	100 to 1000	–	–
CN1CCN(c2ccc(Nc3ncc4c(C(F)(F)F)nn(-c5cccc(N=S(C)(C)=O)n5)c4n3)cc2)CC1 [Compound 24]	10 to 100	–	–	1000 to 5000	1000 to 5000
CN1CCN(c2ccc(Nc3ncc4cnn(-c5cccc(N=S(C)(C)=O)c5)c4n3)cc2)CC1 [Compound 30]	10 to 100	–	–	1000 to 5000	100 to 1000
CN1CCN(c2ccc(Nc3ncc4cnn(-c5ccc6c(c5)c(N)nn6C)c4n3)cc2)CC1 [Compound 49]	100 to 1000	–	–	1000 to 5000	1000 to 5000
